Measured values: paper PMC12454493, “Insight on novel sulfamoylphenyl pyrazole derivatives as anticancer carbonic anhydrase inhibitors” (Molecular Diversity, 2024)

Tests used:
Format in all cases: cell-based
RPMI-8226 = assay: NCI-60 one-dose SRB screen (Leukemia); settings: Homo sapiens, single dose 10 µM, 48 h, read-out: Growth inhibition percent (GI %)
Procedure: (§1) The National Cancer Institute (NCI) Developmental Therapeutic Program (www.dtp.nci.nih.gov) selected the 20 novel synthesized compounds 4a-e, 5a-e, 6a-c, 9a-e, 10 and 11 to test for their anticancer activity at a single dose of 10 µM using SRB assay. […] Supplementary Data S3; Table S1 presents the detailed screening results of the most promising compounds. The preliminary screening’s detailed results for the remaining compounds are elucidated in the (Supplementary Data S3; Table S2).
(§2) The guidelines of the Drug Evaluation Branch’s protocol at the NCI in Bethesda served as the basis for the in vitro anticancer screening assays. at one dose 10 µM against a panel of 60 cancer cell lines. The human tumor cell lines used belonged to nine panels: leukemia, melanoma, lung, colon, CNS, ovarian, renal, prostate and breast cancers using the sulforhodamine B (SRB) assay in a 48 h drug exposure protocol.

SR = assay: NCI-60 one-dose SRB screen (Leukemia); settings: Homo sapiens, single dose 10 µM, 48 h, read-out: Growth inhibition percent (GI %)
Procedure: as §1, §2

CCRF-CEM = assay: NCI-60 one-dose SRB screen (Leukemia); settings: Homo sapiens, single dose 10 µM, 48 h, read-out: Growth inhibition percent (GI %)
Procedure: as §1, §2

MOLT-4 = assay: NCI-60 one-dose SRB screen (Leukemia); settings: Homo sapiens, single dose 10 µM, 48 h, read-out: Growth inhibition percent (GI %)
Procedure: as §1, §2

K-562 = assay: NCI-60 one-dose SRB screen (Leukemia); settings: Homo sapiens, K562, single dose 10 µM, 48 h, read-out: Growth inhibition percent (GI %)
Procedure: as §1, §2

HL-60(TB) = assay: NCI-60 one-dose SRB screen (Leukemia); settings: Homo sapiens, single dose 10 µM, 48 h, read-out: Growth inhibition percent (GI %)
Procedure: as §1, §2

PC-3 = assay: NCI-60 one-dose SRB screen (Prostate Cancer); settings: Homo sapiens, single dose 10 µM, 48 h, read-out: Growth inhibition percent (GI %)
Procedure: as §1, §2

DU-145 = assay: NCI-60 one-dose SRB screen (Prostate Cancer); settings: Homo sapiens, single dose 10 µM, 48 h, read-out: Growth inhibition percent (GI %)
Procedure: as §1, §2

SF-268 = assay: NCI-60 one-dose SRB screen (CNS Cancer); settings: Homo sapiens, single dose 10 µM, 48 h, read-out: Growth inhibition percent (GI %)
Procedure: as §1, §2

SF-539 = assay: NCI-60 one-dose SRB screen (CNS Cancer); settings: Homo sapiens, single dose 10 µM, 48 h, read-out: Growth inhibition percent (GI %)
Procedure: as §1, §2

SNB-19 = assay: NCI-60 one-dose SRB screen (CNS Cancer); settings: Homo sapiens, single dose 10 µM, 48 h, read-out: Growth inhibition percent (GI %)
Procedure: as §1, §2

SF-295 = assay: NCI-60 one-dose SRB screen (CNS Cancer); settings: Homo sapiens, single dose 10 µM, 48 h, read-out: Growth inhibition percent (GI %)
Procedure: as §1, §2

U251 = assay: NCI-60 one-dose SRB screen (CNS Cancer); settings: Homo sapiens, U-251, single dose 10 µM, 48 h, read-out: Growth inhibition percent (GI %)
Procedure: as §1, §2

SNB-75 = assay: NCI-60 one-dose SRB screen (CNS Cancer); settings: Homo sapiens, single dose 10 µM, 48 h, read-out: Growth inhibition percent (GI %)
Procedure: as §1, §2

NCI-H460 = assay: NCI-60 one-dose SRB screen (Non-Small Cell Lung Cancer); settings: Homo sapiens, single dose 10 µM, 48 h, read-out: Growth inhibition percent (GI %)
Procedure: as §1, §2

A549/ATCC = assay: as above; settings: Homo sapiens, single dose 10 µM, 48 h, read-out: Growth inhibition percent (GI %)
Procedure: as §1, §2

NCI-H226 = assay: as above; settings: Homo sapiens, single dose 10 µM, 48 h, read-out: Growth inhibition percent (GI %)
Procedure: as §1, §2

HOP-92 = assay: as above; settings: Homo sapiens, single dose 10 µM, 48 h, read-out: Growth inhibition percent (GI %)
Procedure: as §1, §2

NCI-H522 = assay: as above; settings: Homo sapiens, single dose 10 µM, 48 h, read-out: Growth inhibition percent (GI %)
Procedure: as §1, §2

HOP-62 = assay: as above; settings: Homo sapiens, single dose 10 µM, 48 h, read-out: Growth inhibition percent (GI %)
Procedure: as §1, §2

NCI-H23 = assay: as above; settings: Homo sapiens, single dose 10 µM, 48 h, read-out: Growth inhibition percent (GI %)
Procedure: as §1, §2

NCI-H322M = assay: as above; settings: Homo sapiens, single dose 10 µM, 48 h, read-out: Growth inhibition percent (GI %)
Procedure: as §1, §2

EKVX = assay: as above; settings: Homo sapiens, single dose 10 µM, 48 h, read-out: Growth inhibition percent (GI %)
Procedure: as §1, §2

KM12 = assay: NCI-60 one-dose SRB screen (Colon Cancer); settings: Homo sapiens, single dose 10 µM, 48 h, read-out: Growth inhibition percent (GI %)
Procedure: as §1, §2

HT29 = assay: NCI-60 one-dose SRB screen (Colon Cancer); settings: Homo sapiens, HT-29, single dose 10 µM, 48 h, read-out: Growth inhibition percent (GI %)
Procedure: as §1, §2

HCT-15 = assay: NCI-60 one-dose SRB screen (Colon Cancer); settings: Homo sapiens, single dose 10 µM, 48 h, read-out: Growth inhibition percent (GI %)
Procedure: as §1, §2

HCT-116 = assay: NCI-60 one-dose SRB screen (Colon Cancer); settings: Homo sapiens, single dose 10 µM, 48 h, read-out: Growth inhibition percent (GI %)
Procedure: as §1, §2

SW-620 = assay: NCI-60 one-dose SRB screen (Colon Cancer); settings: Homo sapiens, single dose 10 µM, 48 h, read-out: Growth inhibition percent (GI %)
Procedure: as §1, §2

HCC-2998 = assay: NCI-60 one-dose SRB screen (Colon Cancer); settings: Homo sapiens, single dose 10 µM, 48 h, read-out: Growth inhibition percent (GI %)
Procedure: as §1, §2

SMILES: NS(=O)(=O)c1ccc(NC(=O)COC(=O)c2cn(-c3ccc(S(N)(=O)=O)cc3)nc2-c2ccccc2)cc1 [Compound 4a, 2-Oxo-2-[(4-sulfamoylphenyl)amino] ethyl 3-phenyl-1-(4-sulfamoylphenyl)-1H-pyrazole-4-carboxylate]
- inhibition at 10 µM (RPMI-8226): < 5%
- inhibition at 10 µM (SR): < 5%
- inhibition at 10 µM (CCRF-CEM): < 5%
- inhibition at 10 µM (MOLT-4): < 5%
- inhibition at 10 µM (K-562): 16.7%
- inhibition at 10 µM (HL-60(TB)): 16.6%
- inhibition at 10 µM (PC-3): < 5%
- inhibition at 10 µM (DU-145): < 5%
- inhibition at 10 µM (SF-268): < 5%
- inhibition at 10 µM (SF-539): < 5%
- inhibition at 10 µM (SNB-19): < 5%
- inhibition at 10 µM (SF-295): < 5%
- inhibition at 10 µM (U251): < 5%
- inhibition at 10 µM (SNB-75): 31.1%
- inhibition at 10 µM (NCI-H460): < 5%
- inhibition at 10 µM (A549/ATCC): < 5%
- inhibition at 10 µM (NCI-H226): < 5%
- inhibition at 10 µM (HOP-92): < 5%
- inhibition at 10 µM (NCI-H522): < 5%
- inhibition at 10 µM (HOP-62): < 5%
- inhibition at 10 µM (NCI-H23): < 5%
- inhibition at 10 µM (NCI-H322M): < 5%
- inhibition at 10 µM (EKVX): < 5%
- inhibition at 10 µM (KM12): < 5%
- inhibition at 10 µM (HT29): < 5%
- inhibition at 10 µM (HCT-15): < 5%
- inhibition at 10 µM (HCT-116): 27.8%
- inhibition at 10 µM (SW-620): < 5%
- inhibition at 10 µM (HCC-2998): < 5%
